Among the data in ChEMBL document CHEMBL4507263, “Data for DCP probe BAY-474” (2021) are residual activity, inhibition and IC90 values, retold here.

Assay [1] has as its target Serine/threonine-protein kinase ULK2 (Homo sapiens) (UniProt Q8IYT8). The note with it: Compound concentration 1000.0 nM.
Assay [2] deals with Serine/threonine-protein kinase DCLK2 (Homo sapiens) (UniProt Q8N568). Particulars: Compound concentration 1000.0 nM.
The test system of assay [3] is Mast/stem cell growth factor receptor Kit (Homo sapiens), P10721 [D816V]. The note with it: Compound concentration 1000.0 nM.
The target of assay [4] is BDNF/NT-3 growth factors receptor (Homo sapiens) (UniProt Q16620). Particulars: Compound concentration 1000.0 nM.
Assay [5] concerns the target Serine/threonine-protein kinase MRCK beta (Homo sapiens) (UniProt Q9Y5S2). The note with it: Compound concentration 1000.0 nM.
The target in assay [6] is Dual specificity tyrosine-phosphorylation-regulated kinase 2 (Homo sapiens) (UniProt Q92630). The note with it: Compound concentration 1000.0 nM.
In assay [7] the target is Serine/threonine-protein kinase mTOR (Homo sapiens) (UniProt P42345). The note with it: Compound concentration 1000.0 nM.
The target in assay [8] is Protein kinase C theta type (Homo sapiens) (UniProt Q04759). Particulars: Compound concentration 1000.0 nM.
Assay [9] deals with Serine/threonine-protein kinase NLK (Homo sapiens) (UniProt Q9UBE8). Particulars: Compound concentration 1000.0 nM.
The target in assay [10] is Ribosomal protein S6 kinase alpha-6 (Homo sapiens) (UniProt Q9UK32). The note with it: Compound concentration 1000.0 nM.
In assay [11] the target is Casein kinase I isoform gamma-1 (Homo sapiens) (UniProt Q9HCP0). The note with it: Compound concentration 1000.0 nM.
In assay [12] the target is Dual specificity mitogen-activated protein kinase kinase 5 (Homo sapiens) (UniProt Q13163). The note with it: Compound concentration 1000.0 nM.
In assay [13] the target is Serine/threonine-protein kinase MRCK alpha (Homo sapiens) (UniProt Q5VT25). The note with it: Compound concentration 1000.0 nM.
Assay [14] addresses Serine/threonine-protein kinase TAO3 (Homo sapiens) (UniProt Q9H2K8). The note with it: Compound concentration 1000.0 nM.
For assay [15], the target named is Cyclin-dependent kinase 2 (Homo sapiens) (UniProt P24941). Particulars: Compound concentration 1000.0 nM.
The target in assay [16] is Wee1-like protein kinase 2 (Homo sapiens) (UniProt P0C1S8). The note with it: Compound concentration 1000.0 nM.
For assay [17], the target named is Tyrosine-protein kinase Fes/Fps (Homo sapiens) (UniProt P07332). The note with it: Compound concentration 1000.0 nM.
In assay [18] the test system is Phosphatidylinositol 4,5-bisphosphate 3-kinase catalytic subunit alpha isoform (Homo sapiens), P42336 [Q546K]. The note with it: Compound concentration 1000.0 nM.
Assay [19] addresses Bone morphogenetic protein receptor type-1A (Homo sapiens) (UniProt P36894). Particulars: Compound concentration 1000.0 nM.
In assay [20] the target is Dual specificity mitogen-activated protein kinase kinase 7 (Homo sapiens) (UniProt O14733). Particulars: Compound concentration 1000.0 nM.
The target in assay [21] is Beta-adrenergic receptor kinase 1 (Homo sapiens) (UniProt P25098). The note with it: Compound concentration 1000.0 nM.
Assay [22] has as its target Serine/threonine-protein kinase WNK4 (Homo sapiens) (UniProt Q96J92). Particulars: Compound concentration 1000.0 nM.
For assay [23], the target named is Inhibitor of nuclear factor kappa-B kinase subunit epsilon (Homo sapiens) (UniProt Q14164). The note with it: Compound concentration 1000.0 nM.
The subject of assay [24] is Epidermal growth factor receptor (Homo sapiens), P00533 [L858R]. The note with it: Compound concentration 1000.0 nM.
In assay [25] the target is Receptor tyrosine-protein kinase erbB-3 (Homo sapiens) (UniProt P21860). Particulars: Compound concentration 1000.0 nM.
Assay [26] has as its target Serine/threonine-protein kinase Sgk3 (Homo sapiens) (UniProt Q96BR1). Particulars: Compound concentration 1000.0 nM.
Assay [27] deals with Ribosomal protein S6 kinase alpha-5 (Homo sapiens) (UniProt O75582). As to the kind of experiment: MSK1 (h) Millipore kinase activity assay. The note with it: Compound concentration 1.0 uM.
The target of assay [28] is Discoidin domain-containing receptor 2 (Homo sapiens) (UniProt Q16832). As to the kind of experiment: DDR2 (h) Millipore kinase activity assay. Particulars: Compound concentration 1.0 uM.
Assay [29] addresses Serine/threonine-protein kinase haspin (Homo sapiens) (UniProt Q8TF76). Description: Haspin (h) Millipore kinase activity assay. The note with it: Compound concentration 1.0 uM.
For assay [30], the target named is Serine/threonine-protein kinase BRSK2 (Homo sapiens) (UniProt Q8IWQ3). As to the kind of experiment: BrSK2 (h) Millipore kinase activity assay. Particulars: Compound concentration 1.0 uM.
Assay [31] concerns the target T1, cGMP-dependent protein kinase 1 (Homo sapiens) (UniProt Q13976).
T1 sequence (whole entry): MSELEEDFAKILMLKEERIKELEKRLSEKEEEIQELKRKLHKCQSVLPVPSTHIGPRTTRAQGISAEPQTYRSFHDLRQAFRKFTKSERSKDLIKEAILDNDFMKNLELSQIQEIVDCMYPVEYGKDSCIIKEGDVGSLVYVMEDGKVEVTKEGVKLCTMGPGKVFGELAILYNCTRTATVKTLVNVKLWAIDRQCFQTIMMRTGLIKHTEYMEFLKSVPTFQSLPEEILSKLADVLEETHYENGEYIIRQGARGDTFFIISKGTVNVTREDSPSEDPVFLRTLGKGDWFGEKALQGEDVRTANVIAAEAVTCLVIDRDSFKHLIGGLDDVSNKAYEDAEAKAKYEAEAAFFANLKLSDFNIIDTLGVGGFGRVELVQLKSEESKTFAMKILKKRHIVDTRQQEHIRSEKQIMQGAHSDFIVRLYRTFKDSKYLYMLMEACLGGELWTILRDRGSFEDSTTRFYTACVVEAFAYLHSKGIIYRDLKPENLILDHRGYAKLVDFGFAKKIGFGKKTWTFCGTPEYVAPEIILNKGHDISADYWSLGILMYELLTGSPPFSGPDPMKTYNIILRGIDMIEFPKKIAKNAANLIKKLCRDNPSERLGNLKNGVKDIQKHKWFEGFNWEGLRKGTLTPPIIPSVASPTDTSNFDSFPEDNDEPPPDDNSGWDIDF
As to the kind of experiment: PKG1alpha (h) Millipore kinase activity assay. Particulars: Compound concentration 1.0 uM.

The target of assay [32] is Vascular endothelial growth factor receptor 2 (Homo sapiens) (UniProt P35968). As to the kind of experiment: KDR (h) Millipore kinase activity assay. The note with it: Compound concentration 1.0 uM.
The target in assay [33] is Sodium-dependent serotonin transporter (Homo sapiens) (UniProt P31645). The note with it: Compound concentration 10.0 uM.
For assay [34], the system named is MKN-45. As to the kind of experiment: Cell proliferation with […] cell line. The note with it: Homo sapiens. The class given is functional.
The target in assay [35] is Sigma non-opioid intracellular receptor 1 (Homo sapiens) (UniProt Q99720). As to the kind of experiment: Sigma 1 Eurofins-Panlabs radioligand binding assay. On the set-up: ligand concentration 8 nM. Particulars: Compound concentration 10.0 uM.
Assay [36] addresses Histamine H3 receptor (Homo sapiens) (UniProt Q9Y5N1). The note with it: Compound concentration 10.0 uM.
The target in assay [37] is Casein kinase II subunit alpha' (Homo sapiens) (UniProt P19784). As to the kind of experiment: CK2alpha2 (h) Millipore kinase activity assay. The note with it: Compound concentration 1.0 uM.

Calls of active or inactive are those of the source. No cut-off for these calls is given here.

Protein kinase C theta type (Homo sapiens), sequence (Q04759 whole entry, looked up): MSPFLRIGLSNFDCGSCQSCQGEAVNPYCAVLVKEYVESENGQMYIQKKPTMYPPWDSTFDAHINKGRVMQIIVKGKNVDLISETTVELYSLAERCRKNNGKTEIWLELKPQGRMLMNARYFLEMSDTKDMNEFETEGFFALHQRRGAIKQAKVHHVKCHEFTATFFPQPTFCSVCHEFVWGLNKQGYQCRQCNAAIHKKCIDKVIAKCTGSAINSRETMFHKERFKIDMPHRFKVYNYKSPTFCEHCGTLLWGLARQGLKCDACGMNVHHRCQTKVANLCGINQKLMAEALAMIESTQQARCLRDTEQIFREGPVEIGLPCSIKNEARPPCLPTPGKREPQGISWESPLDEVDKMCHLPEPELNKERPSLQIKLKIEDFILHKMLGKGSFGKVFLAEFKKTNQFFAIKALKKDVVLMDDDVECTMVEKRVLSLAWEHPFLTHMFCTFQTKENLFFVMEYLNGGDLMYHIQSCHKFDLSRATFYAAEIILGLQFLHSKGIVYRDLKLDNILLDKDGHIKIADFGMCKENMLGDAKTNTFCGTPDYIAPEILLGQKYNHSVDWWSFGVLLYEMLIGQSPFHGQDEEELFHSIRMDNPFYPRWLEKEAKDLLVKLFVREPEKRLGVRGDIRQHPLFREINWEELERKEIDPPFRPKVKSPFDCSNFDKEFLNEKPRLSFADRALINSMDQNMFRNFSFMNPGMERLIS
Sigma non-opioid intracellular receptor 1 (Homo sapiens), sequence (Q99720 whole entry): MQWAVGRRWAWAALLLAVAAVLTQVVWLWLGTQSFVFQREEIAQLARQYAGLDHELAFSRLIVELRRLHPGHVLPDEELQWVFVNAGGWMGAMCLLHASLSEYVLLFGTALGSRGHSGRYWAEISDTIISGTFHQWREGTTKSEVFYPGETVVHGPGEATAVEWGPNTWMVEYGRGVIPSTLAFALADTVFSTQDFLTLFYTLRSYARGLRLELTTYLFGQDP
Ribosomal protein S6 kinase alpha-5 (Homo sapiens), sequence (O75582 whole entry, looked up, the tested form may be a part): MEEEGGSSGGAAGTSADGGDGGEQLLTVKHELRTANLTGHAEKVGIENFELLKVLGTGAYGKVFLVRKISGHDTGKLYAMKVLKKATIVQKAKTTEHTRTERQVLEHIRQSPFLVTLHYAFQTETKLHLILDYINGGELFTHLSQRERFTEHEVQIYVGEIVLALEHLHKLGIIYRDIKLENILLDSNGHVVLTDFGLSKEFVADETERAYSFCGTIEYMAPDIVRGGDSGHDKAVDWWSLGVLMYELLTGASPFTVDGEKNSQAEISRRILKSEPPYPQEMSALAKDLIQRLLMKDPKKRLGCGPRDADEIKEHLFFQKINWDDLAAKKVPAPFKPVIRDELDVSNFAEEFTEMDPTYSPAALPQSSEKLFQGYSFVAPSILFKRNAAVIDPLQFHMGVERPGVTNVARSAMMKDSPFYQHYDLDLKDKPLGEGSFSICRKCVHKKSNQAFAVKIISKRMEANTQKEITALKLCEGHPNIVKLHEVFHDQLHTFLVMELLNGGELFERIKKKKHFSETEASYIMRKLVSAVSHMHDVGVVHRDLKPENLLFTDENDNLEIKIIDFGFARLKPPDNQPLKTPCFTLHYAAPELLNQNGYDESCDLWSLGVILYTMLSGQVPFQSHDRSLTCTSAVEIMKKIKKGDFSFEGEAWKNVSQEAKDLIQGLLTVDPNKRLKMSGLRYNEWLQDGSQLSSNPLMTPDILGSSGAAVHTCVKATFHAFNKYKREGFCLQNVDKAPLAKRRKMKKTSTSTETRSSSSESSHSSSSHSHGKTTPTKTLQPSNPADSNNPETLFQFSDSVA
Serine/threonine-protein kinase WNK4 (Homo sapiens), sequence (Q96J92 whole entry): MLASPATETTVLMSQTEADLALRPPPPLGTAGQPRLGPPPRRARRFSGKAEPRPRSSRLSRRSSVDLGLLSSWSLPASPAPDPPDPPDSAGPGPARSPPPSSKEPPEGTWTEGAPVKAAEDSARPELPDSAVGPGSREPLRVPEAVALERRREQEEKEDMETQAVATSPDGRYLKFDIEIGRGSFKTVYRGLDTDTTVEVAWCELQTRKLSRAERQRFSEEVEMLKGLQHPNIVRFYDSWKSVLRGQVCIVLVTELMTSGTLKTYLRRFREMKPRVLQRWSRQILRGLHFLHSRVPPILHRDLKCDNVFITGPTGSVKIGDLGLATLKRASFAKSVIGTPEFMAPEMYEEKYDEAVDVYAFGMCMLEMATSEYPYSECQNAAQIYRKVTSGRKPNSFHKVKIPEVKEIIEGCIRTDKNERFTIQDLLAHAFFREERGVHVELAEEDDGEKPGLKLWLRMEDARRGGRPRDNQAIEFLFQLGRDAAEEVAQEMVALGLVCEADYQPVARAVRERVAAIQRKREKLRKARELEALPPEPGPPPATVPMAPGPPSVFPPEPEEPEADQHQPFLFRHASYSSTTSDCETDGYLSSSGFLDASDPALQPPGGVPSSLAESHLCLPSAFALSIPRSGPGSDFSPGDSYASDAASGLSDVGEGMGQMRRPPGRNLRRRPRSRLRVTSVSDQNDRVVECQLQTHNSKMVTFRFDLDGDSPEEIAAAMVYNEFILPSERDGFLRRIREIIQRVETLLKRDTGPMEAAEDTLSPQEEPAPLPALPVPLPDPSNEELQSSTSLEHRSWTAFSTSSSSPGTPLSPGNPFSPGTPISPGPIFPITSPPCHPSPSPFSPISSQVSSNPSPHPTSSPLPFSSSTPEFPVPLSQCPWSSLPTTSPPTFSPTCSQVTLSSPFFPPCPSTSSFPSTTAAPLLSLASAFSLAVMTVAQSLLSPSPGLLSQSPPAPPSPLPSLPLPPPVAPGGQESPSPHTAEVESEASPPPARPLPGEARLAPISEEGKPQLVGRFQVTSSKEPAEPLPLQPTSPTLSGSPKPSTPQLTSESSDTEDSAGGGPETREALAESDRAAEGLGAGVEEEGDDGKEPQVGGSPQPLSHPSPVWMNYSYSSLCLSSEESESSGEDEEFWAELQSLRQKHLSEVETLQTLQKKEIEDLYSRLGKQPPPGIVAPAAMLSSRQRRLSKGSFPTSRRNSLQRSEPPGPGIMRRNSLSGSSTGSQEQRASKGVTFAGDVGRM
Beta-adrenergic receptor kinase 1 (Homo sapiens), sequence (P25098 whole entry): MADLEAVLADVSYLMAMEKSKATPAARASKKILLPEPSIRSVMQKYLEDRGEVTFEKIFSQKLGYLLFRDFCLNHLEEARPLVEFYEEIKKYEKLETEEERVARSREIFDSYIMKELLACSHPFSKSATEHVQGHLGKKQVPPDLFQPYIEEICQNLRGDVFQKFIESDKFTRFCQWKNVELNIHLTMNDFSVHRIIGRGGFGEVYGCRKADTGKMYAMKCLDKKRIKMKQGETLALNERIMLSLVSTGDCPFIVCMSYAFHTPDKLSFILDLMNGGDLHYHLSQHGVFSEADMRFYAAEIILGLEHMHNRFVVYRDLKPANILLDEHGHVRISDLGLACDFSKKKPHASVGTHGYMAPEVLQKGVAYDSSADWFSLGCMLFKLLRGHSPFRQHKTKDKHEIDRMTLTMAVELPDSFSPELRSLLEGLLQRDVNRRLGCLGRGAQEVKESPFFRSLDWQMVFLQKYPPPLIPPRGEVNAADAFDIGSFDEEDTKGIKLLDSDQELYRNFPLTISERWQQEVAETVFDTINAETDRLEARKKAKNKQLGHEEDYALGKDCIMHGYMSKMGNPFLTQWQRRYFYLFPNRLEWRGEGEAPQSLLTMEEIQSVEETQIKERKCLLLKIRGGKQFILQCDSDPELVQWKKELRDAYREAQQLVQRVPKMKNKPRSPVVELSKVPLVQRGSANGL
Receptor tyrosine-protein kinase erbB-3 (Homo sapiens), sequence (P21860 whole entry): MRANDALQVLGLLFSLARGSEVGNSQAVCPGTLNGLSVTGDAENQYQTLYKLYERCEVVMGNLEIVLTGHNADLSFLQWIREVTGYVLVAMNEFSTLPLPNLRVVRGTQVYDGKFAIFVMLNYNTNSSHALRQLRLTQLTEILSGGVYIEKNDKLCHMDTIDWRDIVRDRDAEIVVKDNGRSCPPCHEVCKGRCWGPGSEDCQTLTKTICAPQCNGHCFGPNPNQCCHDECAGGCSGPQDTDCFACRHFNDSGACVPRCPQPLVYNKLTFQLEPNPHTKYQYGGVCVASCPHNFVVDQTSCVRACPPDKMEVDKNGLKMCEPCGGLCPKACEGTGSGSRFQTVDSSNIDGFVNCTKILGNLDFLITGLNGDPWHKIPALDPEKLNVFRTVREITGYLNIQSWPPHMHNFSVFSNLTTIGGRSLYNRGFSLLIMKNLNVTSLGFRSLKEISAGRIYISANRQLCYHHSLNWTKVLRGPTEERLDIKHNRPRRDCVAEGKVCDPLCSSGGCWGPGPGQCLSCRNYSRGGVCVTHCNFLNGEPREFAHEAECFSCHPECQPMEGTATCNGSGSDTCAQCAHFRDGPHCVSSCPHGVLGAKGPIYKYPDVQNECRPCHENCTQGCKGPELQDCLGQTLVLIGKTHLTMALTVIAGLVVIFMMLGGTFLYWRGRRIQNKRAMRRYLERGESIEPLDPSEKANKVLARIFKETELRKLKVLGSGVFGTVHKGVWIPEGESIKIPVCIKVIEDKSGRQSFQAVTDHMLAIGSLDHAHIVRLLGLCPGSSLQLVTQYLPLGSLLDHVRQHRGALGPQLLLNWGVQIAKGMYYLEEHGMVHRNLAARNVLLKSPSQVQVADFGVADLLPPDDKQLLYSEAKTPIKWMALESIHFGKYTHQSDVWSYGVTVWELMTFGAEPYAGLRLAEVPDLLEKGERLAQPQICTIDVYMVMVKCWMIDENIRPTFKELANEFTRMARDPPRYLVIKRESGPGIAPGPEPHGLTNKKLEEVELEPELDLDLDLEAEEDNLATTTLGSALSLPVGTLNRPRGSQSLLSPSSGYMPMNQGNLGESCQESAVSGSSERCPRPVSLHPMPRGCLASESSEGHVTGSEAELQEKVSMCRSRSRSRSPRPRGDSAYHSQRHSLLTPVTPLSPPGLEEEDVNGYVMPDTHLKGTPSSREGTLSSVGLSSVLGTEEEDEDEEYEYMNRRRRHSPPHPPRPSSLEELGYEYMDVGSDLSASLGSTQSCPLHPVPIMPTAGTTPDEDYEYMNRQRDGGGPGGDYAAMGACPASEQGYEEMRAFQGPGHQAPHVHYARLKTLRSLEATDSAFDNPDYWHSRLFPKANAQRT

For `CC1=C(C#N)[C@@H](c2ccc3[nH]nc(C)c3c2)C(C#N)=C(c2ccc(Cl)cc2)N1` [BAY-827], the residual activity in assay [1] is 100%; in assay [2] it was 97.9%; in assay [3] it was 100%; in assay [4], 85.2%; in assay [5], 100%; in assay [6] it was 100%. In addition, the residual activity in assay [7] is 79.6%; in [8], 100%; in assay [9], 78.9%; in assay [10], 100%; in assay [11] it was 100%; in assay [12], 49.9%. Besides, the residual activity in assay [13] was 82.2%; in assay [14], 100%; in assay [15], 100%; in [16], 100%; in [17], 100%; in assay [18], 93.7%. Also, the residual activity was 98.6% in assay [19]; 92.2% in assay [20]; 88.1% in [21]; 100% in [22]; 100% in assay [23]; 89.5% in assay [24]. For the same compound, the residual activity is 63.9% in [25] and 84.5% in assay [26].

Broadly, the inhibition is the change of the read-out against control, counted positive when it falls. Usually IC90 stands for the point of the concentration-response curve where the effect stands at 90%. Take `CC1=C(C#N)C(c2ccc3[nH]nc(C)c3c2)C(C#N)=C(C)N1` [BAY-474]: the inhibition was -1% in assay [27]; 12% in assay [28]; 2% in [29]; 21% in assay [30]; 7% in assay [31]; 4% in [32]. For the same compound, the inhibition is 9% in [33], 15% in assay [35], -6% in [36] and -2% in assay [37]. Also, the IC90 in assay [34] was 0.024 µM (active).
